Laboratory results published in ChEMBL document CHEMBL1201862, “PubChem BioAssay data set” (2004).
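Each compound was tested at five concentrations against cells in 96-well plates for 48 hours. At the GI50, growth is halved.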 Calls of active or inactive are those of the source. No stated cut-off is given here; in the data, active = GI50 up to about 1.1 µM and inactive = higher.

Tests used:
Assay in all cases: DTP human tumour cell line panel, 48 h
[1] = test system: SNB-19
[2] = test system: M14
[3] = test system: A549
[4] = test system: SW-620
[5] = test system: ACHN
[6] = test system: CCRF-CEM
[7] = test system: A498
[8] = test system: SN12C
[9] = test system: SK-MEL-28
[10] = test system: NCI-H226
[11] = test system: UACC-62
[12] = test system: SK-MEL-2
[13] = test system: 786-0
[14] = test system: IGROV-1
[15] = test system: T47D
[16] = test system: MDA-MB-435
[17] = test system: DU-145
[18] = test system: SK-MEL-5
[19] = test system: Malme-3M

Measured: GI50

CC(C)(C)OC(=O)N1C(=O)C2CCCC21 (stereo not drawn)
inactive: [1] > 100 µM | [2] > 100 µM | [3] > 100 µM | [4] > 100 µM | [5] > 100 µM | [6] > 100 µM | [7] > 100 µM | [8] > 100 µM | [9] > 100 µM | [10] > 100 µM | [11] > 100 µM | [12] > 100 µM | [13] > 100 µM | [14] > 100 µM | [15] > 100 µM | [16] > 100 µM | [17] > 100 µM | [18] > 100 µM

COc1cc(C2(O)c3ccccc3C3=NCCN32)cc(OC)c1OC (stereo not drawn)
inactive: [1] 79.4 µM | [3] > 100 µM | [4] > 100 µM | [5] > 100 µM | [6] > 100 µM | [7] > 100 µM | [8] > 100 µM | [9] > 100 µM | [10] 73.3 µM | [11] > 100 µM | [12] > 100 µM | [13] > 100 µM | [15] > 100 µM | [16] > 100 µM | [17] > 100 µM | [18] > 100 µM

Oc1ccc(/C=C/c2cccc(/C=C/c3ccc(O)c(O)c3)n2)cc1O
inactive: [1] 6.04 µM | [2] 5.58 µM | [3] 5.25 µM | [4] 7.05 µM | [5] 5.14 µM | [6] 2.75 µM | [7] 12.9 µM | [8] 8.87 µM | [9] 14.2 µM | [11] 6.12 µM | [12] 11.7 µM | [13] 10.7 µM | [14] 6.15 µM | [15] 3.4 µM | [16] 10.7 µM | [17] 3.77 µM | [18] 4.72 µM

CC(C)CC1C(=O)OC(C)(C)OC1=O
inactive: [1] > 100 µM | [2] > 100 µM | [3] > 100 µM | [4] > 100 µM | [5] > 100 µM | [6] > 100 µM | [7] > 100 µM | [8] > 100 µM | [9] > 100 µM | [10] > 100 µM | [11] > 100 µM | [12] > 100 µM | [13] > 100 µM | [14] > 100 µM | [15] > 100 µM | [16] > 100 µM | [17] > 100 µM | [18] > 100 µM

CCCCc1ccc(Nc2cc(=O)n(C)c(=O)[nH]2)cc1
inactive: [1] 52.1 µM | [2] > 100 µM | [3] > 100 µM | [4] > 100 µM | [5] > 100 µM | [7] > 100 µM | [8] > 100 µM | [9] > 100 µM | [10] > 100 µM | [11] > 100 µM | [19] > 100 µM | [12] > 100 µM | [13] > 100 µM | [14] > 100 µM | [15] > 100 µM | [16] > 100 µM | [18] > 100 µM

CCCCNC(=O)Cn1c2ccc(Br)cc2c2nc3ccccc3nc21
inactive: [1] > 100 µM | [2] > 100 µM | [3] > 100 µM | [4] > 100 µM | [5] > 100 µM | [6] > 100 µM | [7] > 100 µM | [8] 84.3 µM | [9] > 100 µM | [10] 12.3 µM | [11] > 100 µM | [12] > 100 µM | [13] > 100 µM | [14] > 100 µM | [15] 93.8 µM | [16] > 100 µM | [17] > 100 µM | [18] > 100 µM

ClC1(Cl)C2CCOC21n1cnc2ccccc21 (stereo not drawn)
inactive: [1] > 100 µM | [2] > 100 µM | [3] > 100 µM | [4] 7.21 µM | [6] > 100 µM | [8] > 100 µM | [9] > 100 µM | [10] > 100 µM | [11] 92.9 µM | [19] > 100 µM | [12] > 100 µM | [13] > 100 µM | [14] > 100 µM | [15] > 100 µM | [16] > 100 µM | [17] > 100 µM | [18] > 100 µM

CCOC(=O)c1c(-c2ccc(Cl)cc2)c(C#N)c(=S)n(C2OC(CO)C(O)C(O)C2O)c1-c1ccccc1 (stereo not drawn)
inactive: [1] 22.8 µM | [2] 19.7 µM | [3] 34.2 µM | [4] 18.5 µM | [5] 35.6 µM | [6] 18.1 µM | [8] 38.4 µM | [9] 17.3 µM | [11] 18.7 µM | [19] 40.8 µM | [12] 24.1 µM | [13] 26.7 µM | [14] 33.7 µM | [15] 23.2 µM | [16] 21.3 µM | [17] 27.2 µM | [18] 15.6 µM
